# Experimental data reported in patent US20180071317A1, “USE OF AGENTS THAT ALTER THE PERITUMORAL ENVIRONMENT FOR THE TREATMENT OF CANCER” (SERVICIO ANDALUZ DE SALUD, priority 2011, published 2018).
# Assays:
# [1] = test system: fibroblasts (PHF) co-cultured with tumor cells of human Edwing sarcoma (MHH-ES-1); experiment: Marker expression (IHC) in PHF co-cultured with MHH-ES-1 tumor cells; assay type: cell-based; settings: PHF co-cultured with MHH-ES-1 + SP
# Protocol: (§1) All cultures were maintained 48 hours, following which the same cells were included in paraffin blocks for subsequent analysis of the expression of different markers by immunohistochemistry (see Example 1). […] All experiments were carried out sixfold. Analyzed markers in fibroblast cells (stromal cells) were: TGF-α, TGF-β1, TGF-β2, TGF-β3, SPARC, MMP-3, MMP-7, MMP-9, MMP-11, MMP-13 and MMP-14.
# mononuclear cells = experiment: Marker expression (immunohistochemistry) in mononuclear blood cells with SP alone or with NK1 antagonists; assay type: cell-based, human; settings: SP 1 μM; 48 h
# Description: Briefly, heparinized blood from healthy donors was centrifuged so as to separate the various components thereof. Red blood cells remained at the bottom of the tube. Above them was a small white layer composed of the white blood cells and above, on top of the tube, the blood plasma. The layer of white cells was distributed in a culture plate of 24 wells by adding in each the same concentration of blood plasma from the same donor, supplemented with 1% antibiotic-antimycotic (Invitrogen). In each well, approximately 1000 cells (PHF) skin from the dermis were further added, obtained as previously described in Example 2. […] After 48 hours of incubation, cells were collected and embedded in paraffin for expression analysis by immunohistochemical techniques (as described in Example 1).
# The expression of TGF molecular markers (anti-TGF 2, SAB4502956) and NF-kB (anti-NF-kB, SAB4501992) using specific antibodies against them were analyzed. All antibodies used were rabbit polyclonal antibodies obtained from Sigma Aldrich and were used at a concentration of 1/1000. All experiments were carried out sixfold.
# [2] = test system: fibroblast cells in co-culture with cells isolated from primary human tumors; experiment: Marker expression (IHC) in fibroblasts co-cultured with primary human tumor cells (colon, pancreatic, lung carcinoma, glioma, multiple myeloma); assay type: cell-based
# [3] = test system: fibroblasts (PHF) co-cultured with tumor cells of human endometrial carcinoma (AN3-CA); experiment: Marker expression (IHC) in PHF co-cultured with AN3-CA tumor cells; assay type: cell-based; settings: co-culture with AN3-CA; SP 1 μM; 48 h;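 note: cultured in fresh healthy-donor blood plasma with added antibiotic-antimycotic, run in six replicates, values give percent of fibroblasts positive for each marker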
# Protocol: as §1
# [4] = test system: fibroblasts (PHF) co-cultured with tumor cells of human breast carcinoma (MCF-7); experiment: Marker expression (IHC) in PHF co-cultured with MCF-7 tumor cells; assay type: cell-based; settings: co-culture with MCF-7; SP 1 μM; 48 h;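 note: value is the percentage of fibroblasts positive for each marker, with fibroblasts cultured alone as reference, grown in fresh plasma from a healthy donor, six replicates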
# Protocol: as §1
# [5] = test system: fibroblasts (PHF) co-cultured with tumor cells of human pancreatic adenocarcinoma (CAPAN-1); experiment: Marker expression (IHC) in PHF co-cultured with CAPAN-1 tumor cells; assay type: cell-based; settings: co-culture with CAPAN-1; SP 1 μM; 48 h;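 note: cultures grown in fresh plasma from a healthy human donor, run in six replicates, value is percent of fibroblasts positive for each marker, compared with fibroblasts cultured alone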
# Protocol: All cultures were maintained 48 hours, following which the same cells were included in paraffin blocks for subsequent analysis of the expression of different markers by immunohistochemistry (see Example 1). The primary antibodies used to perform immunohistochemical assays and their concentration are detailed in Example 2. All experiments were carried out sixfold. Analyzed markers in fibroblast cells (stromal cells) were: TGF-α, TGF-β1, TGF-β2, TGF-β3, SPARC, MMP-3, MMP-7, MMP-9, MMP-11, MMP-13 and MMP-14.
# [6] = test system: human primary fibroblasts (PHF); experiment: Marker expression (immunohistochemistry) in human primary fibroblasts with SP alone or with NK1 antagonists; assay type: cell-based; settings: SP 1 μM; 48 h;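 note: primary human dermal fibroblasts, immunostained with rabbit polyclonal antibodies against each marker, value is percentage of stained cells among all cells counted in 20 fields at 400× per section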
# Protocol: These PHF were obtained and purified from samples obtained from the dermis of the skin of healthy volunteers as described in De Bari et al (De Bari et al. 2001). Briefly, small pieces of skin dermis were digested in a solution of hyaluronidase (Sigma-Aldrich, USA) at a concentration of 1 mg/ml for 15 minutes at 37° C. and then treated with 6 mg/ml collagenase type IV (Invitrogen) for 2 hours at 37° C. Then, the cells were washed, resuspended in DMEM culture medium with high glucose (Dulbecco's Modified Eagle's Medium, Invitrogen) supplemented with 1% antibiotic-antimycotic (Invitrogen) and 1% pyruvate Sodium (Invitrogen), and seeded in culture dishes at a concentration of 10,000 cells per square centimeter. When the cells reached confluence, adherent cells were detached using 0.5% sterile trypsin (Invitrogen) and used between passages 3 and 9. For tests shown below, the PHF were plated in 24-well plates at a concentration of 25,000 cells per well.
# After 48 hours of culture, cells were harvested and paraffin cell-blocks for immunohistochemical analysis were constructed, as previously explained in Example 1.
# In immunohistochemical assays the expression of the following markers were studied: TGFα (SAB4502953), TGF1 (SAB4502954), TGFβ2 (SAB4502956), TGFβ3 (SAB4502957), SPARC (HPA002989), MMP-3 (HPA007875) MMP-7 (SAB4501894), MMP-9 (SAB4501896), MMP-11 (SAB4501898), MMP-13 (SAB4501900) and MMP-14 (SAB4501901) using specific antibodies against them. All antibodies used were rabbit polyclonal antibodies obtained from Sigma-Aldrich and were used at a concentration of 1/1000. All experiments were carried out sixfold.
# On each of the six sections cell counts were performed in 20 high power fields (400×) through an Olympus microscope (model CX31) to assess the immunostaining. On each of the fields total cell number and number of cells displaying immunostaining were counted, being then the percentage of cells displaying said immunostaining.
# [7] = test system: fibroblasts (PHF) co-cultured with human fibrosarcoma tumor cells (HT-1080); experiment: Marker expression (IHC) in PHF co-cultured with HT-1080 tumor cells; assay type: cell-based; settings: co-culture with HT-1080; SP 1 μM; 48 h;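 note: cultures grown in fresh human plasma from a healthy donor, six replicates, value is percent of fibroblasts positive for the marker, compared with fibroblasts cultured without tumor cells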
# Protocol: as §1
# [8] = test system: fibroblasts (PHF) co-cultivated with tumor cell carcinoma of urinary bladder (5637); experiment: Marker expression (IHC) in PHF co-cultured with 5637 tumor cells; assay type: cell-based, human; settings: co-culture with 5637; SP 1 μM; 48 h
# Protocol: as §1
# [9] = Primary tumor cells (colon carcinoma) co-cultured + fibroblast + SP (1 μM)
# [10] = co-culture with cells isolated from glioma, SP 1 μM
# [11] = co-culture with cells isolated from lung cancer, SP 1 μM
# [12] = co-culture with cells isolated from multiple myeloma, SP 1 μM
# [13] = co-culture with cells isolated from pancreatic carcinoma, SP 1 μM
smiles,measurement,setting,value
CSCC[C@H](NC(=O)[C@H](CC(C)C)NC(=O)CNC(=O)[C@H](Cc1ccccc1)NC(=O)[C@H](Cc1ccccc1)NC(=O)[C@H](CCC(N)=O)NC(=O)[C@H](CCC(N)=O)NC(=O)[C@@H]1CCCN1C(=O)[C@H](CCCCN)NC(=O)[C@@H]1CCCN1C(=O)[C@@H](N)CCCNC(=N)N)C(N)=O [SP],cells expressing MMP-3,[1],43.5 ± 3.7%
same,cells expressing MMP-7,[1],56.7 ± 4.8%
same,cells expressing MMP-9,[1],54.4 ± 2.4%
same,cells expressing MMP-11,[1],28.4 ± 3.8%
same,cells expressing MMP-13,[1],46.6 ± 3.6%
same,cells expressing MMP-14,[1],49.6 ± 4.2%
same,cells expressing SPARC,[1],46.5 ± 3.2%
same,cells expressing TGF-α,[1],36.4 ± 3.1%
same,cells expressing TGF-β1,[1],35.5 ± 2.1%
same,cells expressing TGF-β2,[1],42.6 ± 5.1%
same,cells expressing TGF-β3,[1],42.4 ± 1.6%
same,mononuclear cells expressing NF-kB,mononuclear cells,25.7 ± 1.4%
same,mononuclear cells expressing TGF-β,mononuclear cells,16.4 ± 1.2%
same,Percentage of fibroblast cells which expressed MMP-3,[2]; [9],47.4 ± 2.4%
same,Percentage of fibroblast cells which expressed MMP-7,[2]; [9],55.1 ± 3.6%
same,Percentage of fibroblast cells which expressed MMP-9,[2]; [9],54.7 ± 4.5%
same,Percentage of fibroblast cells which expressed MMP-11,[2]; [9],28.4 ± 4.4%
same,Percentage of fibroblast cells which expressed MMP-13,[2]; [9],43.4 ± 4.6%
same,Percentage of fibroblast cells which expressed MMP-14,[2]; [9],48.6 ± 5.6%
same,Percentage of fibroblast cells which expressed SPARC,[2]; [9],47 ± 2.7%
same,Percentage of fibroblast cells which expressed TGFα,[2]; [9],45.5 ± 4.2%
same,Percentage of fibroblast cells which expressed TGFβ1,[2]; [9],35.3 ± 2.3%
same,Percentage of fibroblast cells which expressed TGFβ2,[2]; [9],44.5 ± 3.6%
same,Percentage of fibroblast cells which expressed TGFβ3,[2]; [9],45 ± 3.9%
same,Percentage of fibroblast cells which expressed MMP-3,[2]; [10],48.4 ± 5.1%
same,Percentage of fibroblast cells which expressed MMP-7,[2]; [10],59.4 ± 5.7%
same,Percentage of fibroblast cells which expressed MMP-9,[2]; [10],55.5 ± 4.5%
same,Percentage of fibroblast cells which expressed MMP-11,[2]; [10],28.9 ± 4.7%
same,Percentage of fibroblast cells which expressed MMP-13,[2]; [10],48.0 ± 5.6%
same,Percentage of fibroblast cells which expressed MMP-14,[2]; [10],46.3 ± 3.6%
same,Percentage of fibroblast cells which expressed SPARC,[2]; [10],56.2 ± 4.2%
same,Percentage of fibroblast cells which expressed TGFα,[2]; [10],38.4 ± 2.3%
same,Percentage of fibroblast cells which expressed TGFβ1,[2]; [10],35.4 ± 2.6%
same,Percentage of fibroblast cells which expressed TGFβ2,[2]; [10],42.4 ± 4.2%
same,Percentage of fibroblast cells which expressed TGFβ3,[2]; [10],52.1 ± 3.7%
same,Percentage of fibroblast cells which expressed MMP-3,[2]; [11],51.5 ± 5.8%
same,Percentage of fibroblast cells which expressed MMP-7,[2]; [11],54.4 ± 6.3%
same,Percentage of fibroblast cells which expressed MMP-9,[2]; [11],56.5 ± 4.6%
same,Percentage of fibroblast cells which expressed MMP-11,[2]; [11],38.6 ± 3.4%
same,Percentage of fibroblast cells which expressed MMP-13,[2]; [11],46.3 ± 3.4%
same,Percentage of fibroblast cells which expressed MMP-14,[2]; [11],47.6 ± 5.6%
same,Percentage of fibroblast cells which expressed SPARC,[2]; [11],47.3 ± 4.2%
same,Percentage of fibroblast cells which expressed TGFα,[2]; [11],37.5 ± 2.3%
same,Percentage of fibroblast cells which expressed TGFβ1,[2]; [11],37.3 ± 3.3%
same,Percentage of fibroblast cells which expressed TGFβ2,[2]; [11],52.3 ± 2.8%
same,Percentage of fibroblast cells which expressed TGFβ3,[2]; [11],46.1 ± 4.3%
same,Percentage of fibroblast cells which expressed MMP-3,[2]; [12],46.6 ± 5.7%
same,Percentage of fibroblast cells which expressed MMP-7,[2]; [12],57.6 ± 4.1%
same,Percentage of fibroblast cells which expressed MMP-9,[2]; [12],57.3 ± 4.5%
same,Percentage of fibroblast cells which expressed MMP-11,[2]; [12],29.4 ± 3.1%
same,Percentage of fibroblast cells which expressed MMP-13,[2]; [12],47.5 ± 4.3%
same,Percentage of fibroblast cells which expressed MMP-14,[2]; [12],47.2 ± 3.4%
same,Percentage of fibroblast cells which expressed SPARC,[2]; [12],46.3 ± 3.2%
same,Percentage of fibroblast cells which expressed TGFα,[2]; [12],49.3 ± 3.3%
same,Percentage of fibroblast cells which expressed TGFβ1,[2]; [12],45.6 ± 4.2%
same,Percentage of fibroblast cells which expressed TGFβ2,[2]; [12],52.3 ± 3.2%
same,Percentage of fibroblast cells which expressed TGFβ3,[2]; [12],47.4 ± 3.5%
same,Percentage of fibroblast cells which expressed MMP-3,[2]; [13],47.5 ± 6.1%
same,Percentage of fibroblast cells which expressed MMP-7,[2]; [13],56.6 ± 5.1%
same,Percentage of fibroblast cells which expressed MMP-9,[2]; [13],54.1 ± 5.2%
same,Percentage of fibroblast cells which expressed MMP-11,[2]; [13],27.1 ± 6.2%
same,Percentage of fibroblast cells which expressed MMP-13,[2]; [13],57.2 ± 4.7%
same,Percentage of fibroblast cells which expressed MMP-14,[2]; [13],46.2 ± 5.1%
same,Percentage of fibroblast cells which expressed SPARC,[2]; [13],43.7 ± 4.5%
same,Percentage of fibroblast cells which expressed TGFα,[2]; [13],44.2 ± 4.5%
same,Percentage of fibroblast cells which expressed TGFβ2,[2]; [13],43.6 ± 7.4%
same,Percentage of fibroblast cells which expressed TGFβ3,[2]; [13],45.4 ± 5.6%
same,PHF cells expressing MMP-3,[3],44.2 ± 2.7%
same,PHF cells expressing MMP-7,[3],54.4 ± 2.1%
same,PHF cells expressing MMP-9,[3],54.3 ± 1.6%
same,PHF cells expressing MMP-11,[3],29.4 ± 1.8%
same,PHF cells expressing MMP-13,[3],49 ± 3.4%
same,PHF cells expressing MMP-14,[3],45.2 ± 3.5%
same,PHF cells expressing SPARC,[3],49 ± 1.5%
same,PHF cells expressing TGF-α,[3],42.4 ± 2%
same,PHF cells expressing TGF-β1,[3],33.3 ± 3.1%
same,PHF cells expressing TGF-β2,[3],43.5 ± 1.1%
same,PHF cells expressing TGF-β3,[3],44 ± 1.56%
same,PHF cells expressing MMP-3,[4],44.5 ± 1.8%
same,PHF cells expressing MMP-7,[4],57.1 ± 2.7%
same,PHF cells expressing MMP-9,[4],55.3 ± 1.7%
same,PHF cells expressing MMP-11,[4],25.4 ± 2.7%
same,PHF cells expressing MMP-13,[4],46 ± 3.6%
same,PHF cells expressing MMP-14,[4],48.2 ± 3.5%
same,PHF cells expressing SPARC,[4],49 ± 1.5%
same,PHF cells expressing TGF-α,[4],42.6 ± 1.1%
same,PHF cells expressing TGF-β1,[4],43.2 ± 1%
same,PHF cells expressing TGF-β2,[4],42.6 ± 2.1%
same,PHF cells expressing TGF-β3,[4],46 ± 1.7%
same,PHF cells expressing MMP-3,[5],44.4 ± 1.6%
same,PHF cells expressing MMP-7,[5],58.2 ± 2.4%
same,PHF cells expressing MMP-9,[5],56.4 ± 1.5%
same,PHF cells expressing MMP-11,[5],25.3 ± 1.5%
same,PHF cells expressing MMP-13,[5],55 ± 3.6%
same,PHF cells expressing MMP-14,[5],47.2 ± 4.7%
same,PHF cells expressing SPARC,[5],49 ± 1.4%
same,PHF cells expressing TGF-α,[5],42.4 ± 2.1%
same,PHF cells expressing TGF-β1,[5],37.6 ± 1.4%
same,PHF cells expressing TGF-β2,[5],42.4 ± 6.1%
same,PHF cells expressing TGF-β3,[5],43 ± 2.6%
same,PHF cells expressing MMP-3,[6],33.9 ± 2.2%
same,PHF cells expressing MMP-7,[6],46.2 ± 2.3%
same,PHF cells expressing MMP-9,[6],35.5 ± 2.5%
same,PHF cells expressing MMP-11,[6],7.8 ± 2.9%
same,PHF cells expressing MMP-13,[6],17.1 ± 2.6%
same,PHF cells expressing MMP-14,[6],47.3 ± 2.5%
same,PHF cells expressing SPARC,[6],16 ± 1.9%
same,PHF cells expressing TGFα,[6],16.5 ± 1.2%
same,PHF cells expressing TGFβ 1,[6],18.4 ± 1.3%
same,PHF cells expressing TGFβ 2,[6],24.6 ± 1.4%
same,PHF cells expressing TGFβ 3,[6],23.1 ± 1.7%
same,PHF cells expressing MMP-3,[7],43.4 ± 2.8%
same,PHF cells expressing MMP-7,[7],57.1 ± 3.8%
same,PHF cells expressing MMP-9,[7],52.3 ± 2.4%
same,PHF cells expressing MMP-11,[7],27.5 ± 3.8%
same,PHF cells expressing MMP-13,[7],45.4 ± 3.6%
same,PHF cells expressing MMP-14,[7],49.3 ± 3.5%
same,PHF cells expressing SPARC,[7],51.2 ± 3.3%
same,PHF cells expressing TGF-α,[7],42.5 ± 3.1%
same,PHF cells expressing TGF-β1,[7],33.6 ± 3.1%
same,PHF cells expressing TGF-β2,[7],40.7 ± 2.1%
same,PHF cells expressing TGF-β3,[7],51 ± 1.6%
same,PHF cells expressing MMP-3,[8],44.5 ± 2.7%
same,PHF cells expressing MMP-7,[8],55.4 ± 3.8%
same,PHF cells expressing MMP-9,[8],53.3 ± 4.4%
same,PHF cells expressing MMP-11,[8],26.5 ± 1.8%
same,PHF cells expressing MMP-13,[8],44.5 ± 2.5%
same,PHF cells expressing MMP-14,[8],47.1 ± 3.5%
same,PHF cells expressing SPARC,[8],47.4 ± 2.2%
same,PHF cells expressing TGF-α,[8],42.4 ± 1.1%
same,PHF cells expressing TGF-β1,[8],43.6 ± 1.1%
same,PHF cells expressing TGF-β2,[8],44.3 ± 1.1%
same,PHF cells expressing TGF-β3,[8],42.3 ± 1.2%
